Results from patent US10815276B2, “Cell penetrating peptides and methods of making and using thereof” (Entrada Therapeutics, Inc., priority 2014, dated 2020).
Starred links: 1 amine or outer side, 2 acyl side, 3 side chain; linkers in the order of their positions; H or OH if unused. Positions of bridges follow the written chain, without caps; N, C: chain ends. Non-standard residues stand in square brackets, D forms with d. Residues, ends and D or L forms follow the SMILES beside them. Trimesoyl = O=C(c1cc(C(=O)[*:2])cc(C(=O)[*:3])c1)[*:1]; d(pT) = C[C@H](OP(=O)(O)O)[C@@H](N)C(=O)O; 2Nal = N[C@@H](Cc1ccc2ccccc2c1)C(=O)O; Pip = O=C(O)[C@@H]1CCCCN1; Dap = NC[C@H](N)C(=O)O; Sar = CNCC(=O)O

Experiments:
[1] = system: mouse ventricular cardiac myocytes; test: Live-cell confocal microscopy of cardiomyocytes; type: cell-based; conditions: 5 μM peptide or 6 μM conjugate, 3 h
Experimental: FIGS. 35A, 35B, 35C, and 35D display live cell confocal images of mouse ventricular cardiac myocytes after treatment for 3 h with 5 μM c(FΦRRRRQ)-K(FITC) (FIG. 35A) and c(fΦRrRrQ)-K(FITC) (FIG. 35B).
The disclosed cyclic CPPs are very effective in delivering proteins into cardiomyocytes. Fluorescein isothiocyanate (FITC)-labeled cyclic CPPs [c(FΦRRRRQ)-K(FITC)-NH2 and c(fΦRrRrQ)-K(FITC)-NH2] were synthesized and their internalization into mouse ventricular cardiac myocytes was tested by treating the cells with 5 μM FITC-labeled peptide for 3 h. After washing away the extracellular peptides, the internalization of CPPs was examined by fluorescent live-cell confocal microscopy. […] Whether the cyclic CPPs are capable of transporting full-length proteins into cardiac muscle cells was tested. Calmodulin (with an engineered Thr5Cys), a multifunctional calcium-binding messenger protein, was conjugated to c(FΦRRRRQ)-C-NH2 at the Cys residue near N-terminus through a disulfide bond. The disulfide exchange reaction is highly specific, efficient, and reversible. Further, upon entering the cytosol of cells, the disulfide linkage is expected to be reduced to release the native protein (FIG. 35c). The CPP-protein conjugate was chemically labeled on amino-groups with cyanine3, which permits visualization of the internalized calmodulin. […]

HeLa cells [2] = conditions: read-out: IC50 of HeLa cell growth; MTT
Source text: The effect of peptide 37 on the growth of HeLa cells was examined by using the MTT cell viability assay.

HeLa cells [3] = test: MTT proliferation assay with Pin1 inhibitors; type: cell-based, human; conditions: 3-day treatment at 20 μM
Experimental: HeLa cells (100 μL/each well, 5×10^4 cells/mL) were seeded in a 96-well culture plate and allowed to grow overnight in DMEM supplemented with 10% FBS. […] After that, 10 μL of a MTT stock solution (5 mg/mL) was added into each well. The plate was incubated at 37° C. for 4 h and 100 μL of SDS-HCl solubilizing solution was added into each well, followed by thorough mixing. The plate was incubated at 37° C. overnight and the absorbance of the formazan product was measured at 570 nm on a Molecular Devices Spectramax M5 plate reader. Each experiment was performed in triplicates and the cells untreated with peptide were used as control.

HeLa cells [4] = test: Cellular uptake by flow cytometry; type: cell-based, human; conditions: 5 μM FITC-labeled peptide, 2 h
Experimental: The cellular uptake efficiency of peptide 37, peptide 1, and a previously reported membrane-impermeable monocyclic Pin1 inhibitor (Table 18, peptide 46) was assessed by incubating HeLa cells with the FITC-labeled peptides (5 μM) for 2 h and quantifying the total intracellular fluorescence by flow cytometry analysis. […] By contrast, cells treated with peptides 1 and 37 gave MFI values of 2562 and 8792, respectively. Thus, peptide 37 is internalized by HeLa cells ˜4-fold more efficiently than peptide 1. Presumably, the negative charged phosphate group of peptide 1 interacted electrostatically with the positively charged CPP motif and reduced the cellular uptake efficiency of the latter.

Pin1 [5] = biological target: T1, Pin1 (Homo sapiens, UniProt Q13526, S16A/Y23A); test: Fluorescence anisotropy binding to Pin1
T1 construct: The full-length human S16A/Y23A mutant Pin1 was expressed and purified from E. coli; made in house
Experimental: The gene coding for the catalytic domain of PTP1B (amino acids 1-321) was amplified by the polymerase chain reaction using PTP1B cDNA as template and oligonucleotides 5′-[…]-3′ and 5′-[…]-3′ as primers. […] Expression and purification of the ybbR-tagged PTP1B were carried out as previously described (Ren, L et al. Biochemistry 2011, 50, 2339-2356). […] The reaction mixture was passed through a G-25 fast-desalting column equilibrated in 30 mM HEPES, pH 7.4, 150 mM NaCl to remove any free dye molecules. The full-length human S16A/Y23A mutant Pin1 was expressed and purified from E. coli as previously described (Liu, T et al. J. Med. Chem. 2010, 53, 2494-2501).
FA experiments were carried out by incubating 100 nM FITC-labeled peptide with varying concentrations of protein in 20 mM HEPES (pH 7.4), 150 mM NaCl, 2 mM magnesium acetate, and 0.1% bovine serum albumin (BSA) for 2 h at room temperature. The FA values were measured on a Molecular Devices Spectramax M5 plate reader, with excitation and emission wavelengths at 485 and 525 nm, respectively. Equilibrium dissociation constants (KD) were determined by plotting the FA values as a function of protein concentration and fitting the curve to the following equation:
(§1) [formula] where Y is the FA value at a given protein concentration x, L is the peptide concentration, Qb/Qf is the correction factor for fluorophore-protein interaction, Amax is the maximum FA value when all of the peptides are bound to protein, while Amin is the minimum FA value when all of the peptides are free. FA competition assay was performed by incubating 100 nM FITC-labeled Pin1 inhibitor 5 with 1 μM Pin1, followed by the addition of 0-5 μM unlabeled inhibitor. The FA values were measured similarly on a pate reader. IC50 values were obtained by plotting the FA values against the competitor concentration and curve fitting using the four-parameter dose-response inhibition equation (Prism 6, GraphPad).

Pin1 [6] = biological target: T1, Pin1; test: FA competition with FITC-labeled inhibitor 5; type: binding; conditions: 0.1 μM labeled inhibitor 5, 1 μM Pin1
Experimental: FIGS. 32A and 32B display the competition for binding to Pin1 by inhibitors 5 and 7. Each reaction contained 0.1 μM FITC-labeled inhibitor 5, 1 μM Pin1, and 0-5 μM unlabeled inhibitor 5 […] or inhibitor 7 (FIG. 32B) and the FA value was measured and plotted against the competitor concentration.
as §1

HeLa cells [7] = test: Western blot of PML protein level; type: cell-based, human; conditions: 5 μM
Experimental: FIGS. 38A, 38B, 38C, and 38D display cellular activity of peptide 37. (FIG. 38A) Cellular uptake of peptides 1, 37, and 46 (5 μM) by HeLa cells as analyzed by flow cytometry. MFI, mean fluorescence intensity; none, untreated cells (no peptide). (FIG. 38B) Anti-proliferative effect of peptides 37, 46, and 47 on HeLa cells as measured by MTT assay. (FIG. 38C) Western blots showing the effect of peptides 1, 37 and 47 on the protein level of PML in HeLa cells. β-Actin was used as loading control. (FIG. 38D) Quantification of western blot results from (FIG. 38C). Data reported were after background subtraction and represent the mean±SD from 3 independent experiments.
Finally, to ascertain that Pin1 is the molecular target of peptide 37 in vivo, the intracellular protein level of a well-established Pin1 substrate, […] (PML), was examined by western blot analysis. Pin1 negatively regulates the PML level in a phosphorylation-dependent manner and inhibition of Pin1 activity is expected to stabilize PML and increase its intracellular level. […] The effect was already significant at 0.2 μM inhibitor (1.8-fold increase in the PML level) and plateaued at ˜1 μM (3.3-fold increase). Again, bicyclic peptide 47 had no effect under the same conditions, while peptide 1 (the positive control, at 5 μM) increased the PML level by 3.1-fold.

T1 sequence (Q13526 whole entry S16A/Y23A): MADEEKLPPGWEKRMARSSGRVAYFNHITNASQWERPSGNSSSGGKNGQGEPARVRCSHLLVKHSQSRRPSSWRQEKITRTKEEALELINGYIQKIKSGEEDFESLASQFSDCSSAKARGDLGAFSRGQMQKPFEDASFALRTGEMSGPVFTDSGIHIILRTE

Compound	Internalization into cardiac muscle cells (confocal) [1]	IC50 (HeLa cells [2]) [nM]	Inhibition of cell growth (HeLa cells [3]) [%]	Mean fluorescence intensity (MFI) (HeLa cells [4])	Improvement of inhibitor potency vs peptide 6 (Pin1 [5]) [fold]	Kd (Pin1 [5]; FITC-labeled peptide, FA analysis) [nM]	Competition with FITC-labeled inhibitor 5 for binding to Pin1 (Pin1 [6])	Increase in the PML level (HeLa cells [7]) [fold]
c(fΦRrRrQ)-K(FITC)-NH2	efficient internalization	–	–	–	–	–	–	–
C[C@@H]1NC(=O)[C@H](CCCNC(=N)N)NC(=O)[C@H](Cc2ccc3ccccc3c2)NC(=O)[C@@H]2CCCCN2C(=O)[C@@H]([C@H](C)OP(=O)(O)O)NC(=O)CN(C)C(=O)[C@@H](C)NC(=O)c2cc3cc(c2)C(=O)NC[C@H](NC(=O)[C@@H](C)NC1=O)C(=O)N[C@@H](Cc1ccccc1)C(=O)N[C@@H](Cc1ccc2ccccc2c1)C(=O)N[C@@H](CCCNC(=N)N)C(=O)N[C@@H](CCCNC(=N)N)C(=O)N[C@@H](CCCNC(=N)N)C(=O)N[C@@H](CCCNC(=N)N)C(=O)N[C@H](C(=O)N[C@@H](CCCCN)C(N)=O)CNC3=O [Peptide 1, bicyclo[Tm-(D-Ala-Sar-D-pThr-Pip-Nal-Arg-Ala-D-Ala)-Dap-(Phe-Nal-Arg-Arg-Arg-Arg-Dap)]-Lys] ([dA][Sar][d(pT)][Pip][2Nal]RA[dA][Dap]F[2Nal]RRRR[Dap]K-NH2; linker N-9-16 via Trimesoyl)	–	1800	45	2562	~2	72	competed	3.1
